# Measured values: US20060069132A1, “Azolecarboxamide herbicides” (priority 2004, published 2006)
# How the values were obtained:
# [1] = test system: ducksalad; test: Test C flooded paddy test; format: in vivo, Heteranthera limosa
# [2] = test system: wheat; test: Test B postemergence herbicide test; format: in vivo, Triticum aestivum; set-up: key to Wheat plant response rating: 0 = no effect, 100 = complete control; settings: postemergence, 500 g ai/ha; visual rating, scale 0 (no effect) to 100 (complete control)
# Summary of the method: (§1)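 After treating 2-leaf paddy plants or 2–18 cm postemergence plants (1 to 4 leaves) with formulated chemical, researchers kept them in a greenhouse for 13–15 days. Effects were judged visually versus controls: 0 indicates none, 100 total control.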
# [3] = test system: rice; test: Test C flooded paddy test; format: in vivo, Oryza sativa
# Summary of the method: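 Plants were grown to the 1- to 4-leaf stage (2–18 cm) and then treated postemergence, or grown to the 2-leaf stage for the flooded paddy test. They were held in a greenhouse for 12 to 14 days and then scored by eye against controls, where 0 is no effect and 100 is complete control.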
# [4] = test system: giant foxtail; test: Test B pre-/postemergence herbicide test; format: in vivo, Setaria faberi; settings: for Plant response rating, Foxtail, Giant: preemergence; for Foxtail, Giant plant response rating: postemergence, visual rating, scale 0 (no effect) to 100 (complete control)
# Summary of the method: (§2)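 Formulation: non-phytotoxic solvent mix with surfactant. Timing: preemergence on seed and postemergence on 2–18 cm plants, applied concurrently. Readout after 13–15 d greenhouse: visual 0–100 control rating against controls.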
# [5] = test system: velvetleaf; test: Test B pre-/postemergence herbicide test; format: in vivo, Abutilon theophrasti; settings: for Plant response rating, Velvetleaf: preemergence; for Velvetleaf plant response rating: postemergence, visual rating, scale 0 (no effect) to 100 (complete control)
# Summary of the method: as §2
# [6] = test system: morningglory; test: Test B pre-/postemergence herbicide test; format: in vivo, Ipomoea coccinea; settings: for Plant response rating, Morningglory: preemergence; for Morningglory plant response rating: postemergence, visual rating, scale 0 (no effect) to 100 (complete control)
# Summary of the method: (§3)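 Species tested were Echinochloa crus-galli, Ipomoea coccinea, Xanthium strumarium and Oryza sativa, treated both before emergence and at the 1- to 4-leaf stage; rice and barnyardgrass were also tested under flooding at 2 leaves. Greenhouse incubation lasted 13–15 days before visual 0–100 scoring.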
# [7] = test system: barnyardgrass; test: Test B pre-/postemergence herbicide test; format: in vivo, Echinochloa crus-galli; settings: for Plant response rating, Barnyardgrass: preemergence; for Barnyardgrass plant response rating: postemergence, visual rating, scale 0 (no effect) to 100 (complete control)
# Summary of the method: as §3
# [8] = test system: large crabgrass; test: Test B pre-/postemergence herbicide test; format: in vivo, Digitaria sanguinalis; settings: for Plant response rating, Crabgrass, Large: preemergence; for Crabgrass, Large plant response rating: postemergence, visual rating, scale 0 (no effect) to 100 (complete control)
# Summary of the method: as §2
# [9] = test system: barnyardgrass; test: Test B flooded paddy test; format: in vivo, Echinochloa crus-galli; settings: 1000 g ai/ha, visual rating, scale 0 to 100 (0 no effect, 100 complete control), 13 to 15 days
# Summary of the method: (§4)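 Plants grow to 1- to 4-leaf stage (2–18 cm) for postemergence spraying, or to 2-leaf stage for the paddy test. Formulated compound is applied. Greenhouse holding lasts 13–15 days. Response is scored visually relative to controls, 0 no effect to 100 complete control; a dash means no result.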
# [10] = test system: smallflower umbrella sedge; test: Test C flooded paddy test; format: in vivo, Cyperus difformis
# [11] = test system: small flower umbrella sedge; test: Test B flooded paddy test; format: in vivo, Cyperus difformis; settings: 1000 g ai/ha, visual rating, scale 0 to 100 (0 no effect, 100 complete control), 13 to 15 days
# Summary of the method: as §4
# [12] = test system: barnyardgrass; test: Test C flooded paddy test; format: in vivo, Echinochloa crus-galli
# Summary of the method: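 Weeds and wheat were sprayed after emergence, at a height of 2 to 18 cm (1–4 leaves), and paddy barnyardgrass was flooded and treated at two leaves. Assessment took place 12–14 days later in the greenhouse on a 0-to-100 visual control scale. A dash means no result was obtained.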
# [13] = test system: rice; test: Test B pre-/postemergence herbicide test; format: in vivo, Oryza sativa; settings: preemergence
# Summary of the method: as §2
# [14] = test system: corn; test: Test B pre-/postemergence herbicide test; format: in vivo, Zea mays; settings: for Plant response rating, Corn: preemergence; for Corn plant response rating: postemergence, visual rating, scale 0 (no effect) to 100 (complete control)
# Summary of the method: as §2
# [15] = test system: rice; test: Test B flooded paddy test; format: in vivo, Oryza sativa; settings: 1000 g ai/ha, visual rating, scale 0 to 100 (0 no effect, 100 complete control), 13 to 15 days
# Summary of the method: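 Scale 0–100: zero equals no visible effect, 100 complete control, judged by eye relative to controls. Timing: 13 to 15 days in greenhouse post-treatment. Growth stage at spraying: two leaves (paddy) or one to four leaves, 2–18 cm (postemergence).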
# [16] = test system: pigweed; test: Test B pre-/postemergence herbicide test; format: in vivo, Amaranthus retroflexus; settings: for Plant response rating, Pigweed: preemergence; for Pigweed plant response rating: postemergence, visual rating, scale 0 (no effect) to 100 (complete control)
# Summary of the method: as §2
# [17] = test system: wild oat; test: Test B postemergence herbicide test; format: in vivo, Avena fatua; settings: postemergence, visual rating, scale 0 (no effect) to 100 (complete control)
# Summary of the method: as §1
# [18] = test system: blackgrass; test: Test B postemergence herbicide test; format: in vivo, Alopecurus myosuroides; settings: postemergence, visual rating, scale 0 (no effect) to 100 (complete control)
# Summary of the method: as §4
# [19] = test system: cocklebur; test: Test B pre-/postemergence herbicide test; format: in vivo, Xanthium strumarium; settings: for Plant response rating, Cocklebur: preemergence; for Cocklebur plant response rating: postemergence, visual rating, scale 0 (no effect) to 100 (complete control)
# Summary of the method: as §3
# [20] = test system: ducksalad; test: Test B flooded paddy test; format: in vivo, Heteranthera limosa; settings: 1000 g ai/ha, visual rating, scale 0 to 100 (0 no effect, 100 complete control), 13 to 15 days
# Summary of the method: as §4
# [21] = test system: lambsquarters; test: Test B pre-/postemergence herbicide test; format: in vivo, Chenopodium album; settings: for Plant response rating, Lambsquarters: preemergence; for Lambsquarters plant response rating: postemergence, visual rating, scale 0 (no effect) to 100 (complete control)
# Summary of the method: as §2
# [22] = test system: Surinam grass; test: Test B pre-/postemergence herbicide test; format: in vivo, Urochloa decumbens; settings: for Plant response rating, Surinam Grass: preemergence; for Surinam Grass plant response rating: postemergence, visual rating, scale 0 (no effect) to 100 (complete control)
# Summary of the method: as §2
# [23] = 62 g ai/ha, scale 0 to 100 (0 no effect, 100 complete control)
# [24] = 125 g ai/ha, scale 0 to 100 (0 no effect, 100 complete control)
# [25] = 250 g ai/ha, scale of 0 to 100, 0 is no effect, 100 is complete control
# [26] = 500 g ai/ha, visual rating after 12 to 14 days, scale 0 to 100 (0 no effect, 100 complete control)
# [27] = 500 g ai/ha, visual rating 0-100, 0 no effect, 100 complete control
# [28] = 125 g ai/ha, 0 to 100 scale, 0 is no effect, 100 is complete control
compound,measurement,setting,value
CCOC(=O)c1cc(N(C(C)=O)C(=O)c2cc(C(C)(C)C)nn2CC)ccc1C [Compound 141],Ducksalad plant response rating,[1]; [23],0
same,Ducksalad plant response rating,[1]; [24],0
same,Ducksalad plant response rating,[1]; [25],0
same,"Plant response rating, Ducksalad",[1]; [26],0
same,Wheat plant response rating,[2],20
same,Rice plant response rating,[3]; [23],0
same,Rice plant response rating,[3]; [24],0
same,Rice plant response rating,[3]; [25],0
same,"Plant response rating, Rice",[3]; [26],0
same,"Plant response rating, Foxtail, Giant",[4]; [27],20
same,"Foxtail, Giant plant response rating",[4]; 125 g ai/ha,20
same,"Foxtail, Giant plant response rating",[4]; 500 g ai/ha,20
same,"Plant response rating, Foxtail, Giant",[4]; [28],10
same,"Plant response rating, Velvetleaf",[5]; [27],20
same,Velvetleaf plant response rating,[5]; 125 g ai/ha,20
same,Velvetleaf plant response rating,[5]; 500 g ai/ha,80
same,"Plant response rating, Velvetleaf",[5]; [28],0
same,"Plant response rating, Morningglory",[6]; [27],30
same,Morningglory plant response rating,[6]; 125 g ai/ha,20
same,Morningglory plant response rating,[6]; 500 g ai/ha,30
same,"Plant response rating, Morningglory",[6]; [28],20
same,"Plant response rating, Barnyardgrass",[7]; [27],0
same,Barnyardgrass plant response rating,[7]; 125 g ai/ha,0
same,Barnyardgrass plant response rating,[7]; 500 g ai/ha,10
same,"Plant response rating, Barnyardgrass",[7]; [28],0
same,"Plant response rating, Crabgrass, Large",[8]; [27],20
same,"Crabgrass, Large plant response rating",[8]; 125 g ai/ha,10
same,"Crabgrass, Large plant response rating",[8]; 500 g ai/ha,30
same,"Plant response rating, Crabgrass, Large",[8]; [28],10
same,Barnyardgrass plant response rating,[9],10
same,"Sedge, Umbrella plant response rating",[10]; [23],0
same,"Sedge, Umbrella plant response rating",[10]; [24],0
same,"Sedge, Umbrella plant response rating",[10]; [25],30
same,"Plant response rating, Sedge, Umbrella",[10]; [26],45
same,"Sedge, Umbrella plant response rating",[11],90
same,Barnyardgrass plant response rating,[12]; [23],0
same,Barnyardgrass plant response rating,"[12]; 125 g ai/ha, scale of 0 to 100, 0 is no effect, 100 is complete control",0
same,Barnyardgrass plant response rating,[12]; [25],0
same,"Plant response rating, Barnyardgrass",[12]; [26],10
same,"Plant response rating, Rice",[13]; [27],0
same,"Plant response rating, Rice",[13]; [28],0
same,"Plant response rating, Corn",[14]; [27],0
same,Corn plant response rating,[14]; 125 g ai/ha,0
same,Corn plant response rating,[14]; 500 g ai/ha,10
same,"Plant response rating, Corn",[14]; [28],0
same,Rice plant response rating,[15],0
same,"Plant response rating, Pigweed",[16]; [27],30
same,Pigweed plant response rating,[16]; 125 g ai/ha,30
same,Pigweed plant response rating,[16]; 500 g ai/ha,80
same,"Plant response rating, Pigweed",[16]; [28],0
same,"Oat, Wild plant response rating",[17]; 125 g ai/ha,10
same,"Oat, Wild plant response rating",[17]; 500 g ai/ha,20
same,Blackgrass plant response rating,[18]; 125 g ai/ha,20
same,Blackgrass plant response rating,[18]; 500 g ai/ha,20
same,"Plant response rating, Cocklebur",[19]; [27],10
same,Cocklebur plant response rating,[19]; 125 g ai/ha,0
same,Cocklebur plant response rating,[19]; 500 g ai/ha,20
same,"Plant response rating, Cocklebur",[19]; [28],0
same,Ducksalad plant response rating,[20],80
same,"Plant response rating, Lambsquarters",[21]; [27],0
same,Lambsquarters plant response rating,[21]; 125 g ai/ha,60
same,Lambsquarters plant response rating,[21]; 500 g ai/ha,90
same,"Plant response rating, Lambsquarters",[21]; [28],0
same,"Plant response rating, Surinam Grass",[22]; [27],10
same,Surinam Grass plant response rating,[22]; 125 g ai/ha,10
same,Surinam Grass plant response rating,[22]; 500 g ai/ha,20
same,"Plant response rating, Surinam Grass",[22]; [28],0
